From US5807535A, “Metal complexes of hydroxyaryl containing aminocarboxylic acid chelating agents” (Australian Nuclear Science & Technology Organisation, priority 1992, dated 1998)
Read-outs that look alike come from different tables or passages of the source. Blank lines part the entries; values can stand above or below the compound they belong to.

Assays:
[1] = Biodistribution of compound No. 6 in mice (Table 6); assay type: in vivo, Balb/c mice; conditions: mouse; for tissue uptake at 0.05 h: 3 min
From the text: (§1) A series of derivatives incorporating carboxyl and phenolate donor groups (1-6) were synthesised by literature method and their radiolabelling characteristic and biological behaviour evaluated. Initial work involved an investigation of radiochemical properties of the ^99m Tc complexes of the ligands and their biodistribution in rats and mice (see Tables 1-6 and 8-12).
(§2) A typical method of radiolabelling of the chelator was achieved by dissolving the chelator in a basic solution of saline. The pH was then adjusted to approx. 6 with HCl. Excess stannous chloride was added to the resultant solution followed by one equivalent volume of sodium ^99m TcO4 (10-50 mCi/ml). Final concentration of the chelator was approx. 1 mg/ml. The efficacy of labelling was determined by ITLC-SG. For each product only one main radiochemical species was observed. Each complex was diluted to 15 μCi/100 μl with saline. […] (See FIGS. 1A and 1B).

[2] = Biodistribution of 99mTc complexes in mice; assay type: in vivo, Balb/c mice
From the text: as §1, §2

[3] = Biodistribution of 67Ga complexes in mice; assay type: in vivo, balb/c mice
Experimental: To ligand (50 μL, 10 mg/mL, 0.2 M NaOAc, […]) was added ^67 Ga citrate (18.5 MBq) and the resultant mixture diluted to 1 mL (0.2 M NaOAc, pH 7). The pH was adjusted to 12 with 1 M NaOH (20 μL) and heated at 40° C. for 40 min. The final volume was adjusted (to 5 mL) with saline and sterilised by filtering through a 0.22 μm filter.
Each animal was injected via tail vein with ^67 Ga complex (100 μL, ~3.7×10^5 Bq). Animals were sacrificed at various time intervals (5 animals per time point/6 time points). Data are illustrated in FIG. 26-30 and in Tables 13-17.
Each ^67 Ga-ligand complex has been evaluated in balb/c mice. […] (see FIG. 26-30).

[4] = lymphoma diagnosis; cited from earlier work
[5] = blood, read-out: biodistribution blood
[6] = bone, read-out: biodistribution bone
[7] = brain, read-out: biodistribution brain
[8] = heart, read-out: biodistribution heart
[9] = kidneys, read-out: biodistribution kidneys
[10] = liver, read-out: biodistribution liver
[11] = lungs, read-out: biodistribution lungs
[12] = muscle, read-out: biodistribution muscle
[13] = pancreas, read-out: biodistribution pancreas
[14] = skin, read-out: biodistribution skin
[15] = spleen, read-out: biodistribution spleen
[16] = stomach, read-out: biodistribution stomach
[17] = tail, read-out: biodistribution tail
[18] = thymus, read-out: biodistribution thymus
[19] = thyroid, read-out: biodistribution thyroid
[20] = total git, read-out: biodistribution tot GIT
[21] = urine, read-out: biodistribution urine

tissue uptake at 0.05 h [1, 5]: 10.7 %ID/g | tissue uptake at 5 min [1, 5]: 7.83 %ID/g | tissue uptake at 0.05 h [1, 6]: 1.91 %ID/g | tissue uptake at 5 min [1, 6]: 1.39 %ID/g | tissue uptake at 0.05 h [1, 7]: 0.74 %ID/g | tissue uptake at 5 min [1, 7]: 0.35 %ID/g | tissue uptake at 0.05 h [1, 8]: 3.84 %ID/g | tissue uptake at 5 min [1, 8]: 2.8 %ID/g | tissue uptake at 0.05 h [1, 9]: 24.1 %ID/g | tissue uptake at 5 min [1, 9]: 18.4 %ID/g | tissue uptake at 0.05 h [1, 10]: 6.52 %ID/g | tissue uptake at 5 min [1, 10]: 9.39 %ID/g | tissue uptake at 0.05 h [1, 11]: 6.38 %ID/g | tissue uptake at 5 min [1, 11]: 4.66 %ID/g | tissue uptake at 0.05 h [1, 12]: 1.81 %ID/g | tissue uptake at 5 min [1, 12]: 1.26 %ID/g | tissue uptake at 0.05 h [1, 13]: 1.86 %ID/g | tissue uptake at 5 min [1, 13]: 1.41 %ID/g | tissue uptake at 0.05 h [1, 14]: 3.96 %ID/g | tissue uptake at 5 min [1, 14]: 3.47 %ID/g | tissue uptake at 0.05 h [1, 15]: 2.24 %ID/g | tissue uptake at 5 min [1, 15]: 1.78 %ID/g | tissue uptake at 0.05 h [1, 16]: 1.78 %ID/g | tissue uptake at 5 min [1, 16]: 6.85 %ID/g | tissue uptake at 0.05 h [1, 17]: 8.94 %ID/g | tissue uptake at 5 min [1, 17]: 6.18 %ID/g | tissue uptake at 0.05 h [1, 18]: 3.67 %ID/g | tissue uptake at 5 min [1, 18]: 2.5 %ID/g | tissue uptake at 0.05 h [1, 19]: 5.76 %ID/g | tissue uptake at 5 min [1, 19]: 3.73 %ID/g | tissue uptake at 0.05 h [1, 20]: 1.03 %ID/g | tissue uptake at 5 min [1, 20]: 2.12 %ID/g | tissue uptake at 0.05 h [1, 21]: 1.3 %ID/g | tissue uptake at 5 min [1, 21]: 0.95 %ID/g | biodistribution GIT ([2]; 1 min): 3.58 % Injected dose | biodistribution bladder ([2]; 1 min): 0.06 % Injected dose | biodistribution blood ([2]; 1 min): 41.63 % Injected dose | biodistribution bone ([2]; 1 min): 7.37 % Injected dose | biodistribution heart ([2]; 1 min): 0.46 % Injected dose | biodistribution kidney ([2]; 1 min): 7.57 % Injected dose | biodistribution liver ([2]; 1 min): 22.44 % Injected dose | biodistribution lungs ([2]; 1 min): 1.71 % Injected dose | biodistribution muscle ([2]; 1 min): 13.95 % Injected dose | biodistribution skin ([2]; 1 min): 8.13 % Injected dose | biodistribution spleen ([2]; 1 min): 0.2 % Injected dose | biodistribution stomach ([2]; 1 min): 0.4 % Injected dose | biodistribution tail ([2]; 1 min): 8.46 % Injected dose | biodistribution urine ([2]; 1 min): 0.07 % Injected dose | biodistribution GIT ([2]; 3 min): 11.98 % Injected dose | biodistribution bladder ([2]; 3 min): 0.08 % Injected dose | biodistribution blood ([2]; 3 min): 15.59 % Injected dose | biodistribution bone ([2]; 3 min): 3.5 % Injected dose | biodistribution heart ([2]; 3 min): 0.2 % Injected dose | biodistribution kidney ([2]; 3 min): 5.68 % Injected dose | biodistribution liver ([2]; 3 min): 35.66 % Injected dose | biodistribution lungs ([2]; 3 min): 0.65 % Injected dose | biodistribution muscle ([2]; 3 min): 7.87 % Injected dose | biodistribution skin ([2]; 3 min): 8.31 % Injected dose | biodistribution spleen ([2]; 3 min): 0.09 % Injected dose | biodistribution stomach ([2]; 3 min): 0.43 % Injected dose | biodistribution tail ([2]; 3 min): 7.37 % Injected dose | biodistribution urine ([2]; 3 min): 0.81 % Injected dose | biodistribution GIT ([2]; 5 min): 27.85 % Injected dose | biodistribution bladder ([2]; 5 min): 0.07 % Injected dose | biodistribution blood ([2]; 5 min): 10.31 % Injected dose | biodistribution bone ([2]; 5 min): 3.86 % Injected dose | biodistribution heart ([2]; 5 min): 0.16 % Injected dose | biodistribution kidney ([2]; 5 min): 4.53 % Injected dose | biodistribution liver ([2]; 5 min): 30.85 % Injected dose | biodistribution lungs ([2]; 5 min): 0.69 % Injected dose | biodistribution muscle ([2]; 5 min): 7.24 % Injected dose | biodistribution skin ([2]; 5 min): 9.28 % Injected dose | biodistribution spleen ([2]; 5 min): 0.14 % Injected dose | biodistribution stomach ([2]; 5 min): 5.42 % Injected dose | biodistribution tail ([2]; 5 min): 7.64 % Injected dose | biodistribution urine ([2]; 5 min): 0.59 % Injected dose | biodistribution GIT ([2]; 10 min): 45.71 % Injected dose | biodistribution bladder ([2]; 10 min): 0.23 % Injected dose | biodistribution blood ([2]; 10 min): 6.34 % Injected dose | biodistribution bone ([2]; 10 min): 2.76 % Injected dose | biodistribution heart ([2]; 10 min): 0.08 % Injected dose | biodistribution kidney ([2]; 10 min): 2.44 % Injected dose | biodistribution liver ([2]; 10 min): 16.04 % Injected dose | biodistribution lungs ([2]; 10 min): 0.45 % Injected dose | biodistribution muscle ([2]; 10 min): 5.27 % Injected dose | biodistribution skin ([2]; 10 min): 5.17 % Injected dose | biodistribution spleen ([2]; 10 min): 0.07 % Injected dose | biodistribution stomach ([2]; 10 min): 3.42 % Injected dose | biodistribution tail ([2]; 10 min): 4.77 % Injected dose | biodistribution urine ([2]; 10 min): 1.231 % Injected dose | biodistribution GIT ([2]; 30 min): 51.18 % Injected dose | biodistribution bladder ([2]; 30 min): 0.2 % Injected dose | biodistribution blood ([2]; 30 min): 9.66 % Injected dose | biodistribution bone ([2]; 30 min): 2.54 % Injected dose | biodistribution heart ([2]; 30 min): 0.11 % Injected dose | biodistribution kidney ([2]; 30 min): 1.9 % Injected dose | biodistribution liver ([2]; 30 min): 14.05 % Injected dose | biodistribution lungs ([2]; 30 min): 0.39 % Injected dose | biodistribution muscle ([2]; 30 min): 6.92 % Injected dose | biodistribution skin ([2]; 30 min): 4.23 % Injected dose | biodistribution spleen ([2]; 30 min): 0.06 % Injected dose | biodistribution stomach ([2]; 30 min): 1.73 % Injected dose | biodistribution tail ([2]; 30 min): 2.41 % Injected dose | biodistribution urine ([2]; 30 min): 1.64 % Injected dose | biodistribution bone ([3]; 1 min): 4.33 % ID | biodistribution kidney ([3]; 1 min): 9.95 % ID | biodistribution liver ([3]; 1 min): 26.45 % ID | biodistribution muscle ([3]; 1 min): 17.93 % ID | biodistribution skin ([3]; 1 min): 13.91 % ID | biodistribution spleen ([3]; 1 min): 0.22 % ID | biodistribution bone ([3]; 3 min): 2.41 % ID | biodistribution kidney ([3]; 3 min): 5.24 % ID | biodistribution liver ([3]; 3 min): 34.06 % ID | biodistribution muscle ([3]; 3 min): 10.67 % ID | biodistribution skin ([3]; 3 min): 12.80 % ID | biodistribution spleen ([3]; 3 min): 0.08 % ID | biodistribution bone ([3]; 5 min): 1.67 % ID | biodistribution kidney ([3]; 5 min): 3.36 % ID | biodistribution liver ([3]; 5 min): 30.21 % ID | biodistribution muscle ([3]; 5 min): 6.35 % ID | biodistribution skin ([3]; 5 min): 10.62 % ID | biodistribution spleen ([3]; 5 min): 0.04 % ID | biodistribution bone ([3]; 10 min): 0.96 % ID | biodistribution kidney ([3]; 10 min): 1.98 % ID | biodistribution liver ([3]; 10 min): 18.58 % ID | biodistribution muscle ([3]; 10 min): 4.37 % ID | biodistribution skin ([3]; 10 min): 5.76 % ID | biodistribution spleen ([3]; 10 min): 0.03 % ID | biodistribution bone ([3]; 30 min): 0.34 % ID | biodistribution kidney ([3]; 30 min): 0.79 % ID | biodistribution liver ([3]; 30 min): 3.15 % ID | biodistribution muscle ([3]; 30 min): 7.73 % ID | biodistribution skin ([3]; 30 min): 0.86 % ID | biodistribution spleen ([3]; 30 min): 0.01 % ID | biodistribution kidney ([3]; 120 min): 0.06 % ID | biodistribution liver ([3]; 120 min): 1.33 % ID | biodistribution muscle ([3]; 120 min): 1.85 % ID | biodistribution skin ([3]; 120 min): 0.10 % ID | biodistribution spleen ([3]; 120 min): 0.00 % ID
Compound: Cc1cc(C)c(O)c(NC(=O)CN(CCN(CC(=O)O)CC(=O)Nc2cc(C)cc(C)c2O)CC(=O)O)c1 [Compound 6]

Compound: O=C([O-])CC(O)(CC(=O)[O-])C(=O)[O-].[Ga+3] [Ga-67 citrate]
clearance [4]: clears slowly from the blood, through the liver, accumulating in the bowel | uptake at the disease sites [4]: relatively fast and selective uptake at the disease sites
